The record followed here is ChEMBL document CHEMBL1156135 (Bioorg Med Chem Lett, 2009).

By IC50 is commonly meant the concentration that inhibits the measured activity by half.

Data set [1] can be described thus: Antiproliferative activity against human WM266.4 cells expressing b-Raf V600E mutant. The data set is classed as functional, cell-based. Conditions: WM 266-4.
A short description of data set [2]: Therapeutic index, ratio of IC50 for human Caco-2 cells expressing wild type b-Raf to IC50 for human WM266.4 cells expressing b-Raf V600E mutant. The data set is classed as cell-based. The following applies: read-out: Ratio IC50.
A short description of data set [3]: Therapeutic index, ratio of IC50 for human Caco-2 cells expressing wild type b-Raf to IC50 for human A375 cells expressing b-Raf V600E mutant. Conditions: read-out: Ratio IC50. The data set is classed as cell-based.
The next data set deals with A-375. Description: Antiproliferative activity against human A375 cells expressing b-Raf V600E mutant. In kind it is functional, cell-based.
A further data set deals with Caco-2. Kind of data set: Antiproliferative activity against human Caco-2 cells expressing wild type b-Raf. In kind it is functional, cell-based.
The target in data set [4] is Serine/threonine-protein kinase B-raf (Homo sapiens, UniProt P15056). Kind of data set: Inhibition of B-Raf.
Chain of Serine/threonine-protein kinase B-raf (P15056 whole entry): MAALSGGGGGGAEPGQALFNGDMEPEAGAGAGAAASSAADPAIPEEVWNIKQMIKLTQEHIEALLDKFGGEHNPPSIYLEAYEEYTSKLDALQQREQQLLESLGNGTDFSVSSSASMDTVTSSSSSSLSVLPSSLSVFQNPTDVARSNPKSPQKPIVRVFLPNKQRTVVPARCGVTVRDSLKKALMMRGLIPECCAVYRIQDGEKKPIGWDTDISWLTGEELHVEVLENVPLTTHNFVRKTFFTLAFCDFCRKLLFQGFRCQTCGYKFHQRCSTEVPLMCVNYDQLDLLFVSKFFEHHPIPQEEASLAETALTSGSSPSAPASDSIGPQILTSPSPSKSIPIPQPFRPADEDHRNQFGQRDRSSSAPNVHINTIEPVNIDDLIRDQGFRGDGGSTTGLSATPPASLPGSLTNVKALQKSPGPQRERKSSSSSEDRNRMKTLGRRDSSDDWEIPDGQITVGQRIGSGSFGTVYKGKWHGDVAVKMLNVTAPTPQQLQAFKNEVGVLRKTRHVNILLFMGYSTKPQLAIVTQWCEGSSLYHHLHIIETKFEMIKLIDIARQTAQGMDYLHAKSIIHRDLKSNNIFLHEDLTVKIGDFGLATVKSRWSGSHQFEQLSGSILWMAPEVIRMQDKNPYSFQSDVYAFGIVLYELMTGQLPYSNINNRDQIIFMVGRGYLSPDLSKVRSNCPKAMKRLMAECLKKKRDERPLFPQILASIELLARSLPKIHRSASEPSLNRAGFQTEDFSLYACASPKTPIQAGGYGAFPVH
A short description of data set [5]: Selectivity for B-raf over p38alpha.

On to `CCOC(=O)N1C2CCC1CC(c1ccnc3c(-c4cccc5[nH]ncc45)c(-c4ccncc4)nn13)C2` (stereo unspecified), for which the values for the IC50 (in data set [1]; in the data set on A-375; in the data set on Caco-2) were 300 nM, 380 nM and 800 nM, respectively. Also, the selectivity ratio was 2.7 in data set [2] and 2.1 in data set [3].

With `CN(C)C(=O)N1C2CCC1CC(c1ccnc3c(-c4cccc5[nH]ncc45)c(-c4ccncc4)nn13)C2` (stereo unspecified), the IC50 in data set [1] was 2140 nM; in the data set on A-375 it was 3000 nM.

With `Oc1cccc(-c2c(-c3ccncc3)nn3c(C4CC5CCC(C4)N5)ccnc23)c1` (stereo unspecified), the IC50 in data set [1] was determined as 220 nM; in the data set on A-375 it was 2250 nM.

Take `CCOC(=O)N1C2CCC1CC(c1ccnc3c(-c4ccc(-c5nnco5)cc4)c(-c4ccncc4)nn13)C2` (stereo unspecified): in data set [4], 151 nM corresponded to half-maximal inhibition (IC50).

As to `COc1cccc(-c2c(-c3ccncc3)nn3c(C4CC5CCC(C4)N5)ccnc23)c1` (stereo unspecified), the IC50 in data set [1] stood at 8400 nM; in the data set with A-375, 6400 nM.

Regarding `CCN1C2CCC1CC(c1ccnc3c(-c4ccc(Cl)c(O)c4)c(-c4ccncc4)nn13)C2` (stereo unspecified), the IC50 turned out to be 0.5 nM in data set [4], 230 nM in data set [1] and 320 nM in the data set on A-375.

On to `CCOC(=O)N1C2CCC1CC(c1ccnc3c(-c4ccc(Cl)c(OC)c4)c(-c4ccncc4)nn13)C2` (stereo unspecified), for which, in data set [1], the IC50 was > 10000 nM.

For `CCOC(=O)N1C2CCC1CC(c1ccnc3c(-c4ccc(F)c(F)c4)c(-c4ccncc4)nn13)C2` (stereo unspecified), the IC50 in data set [4] was 302 nM.

Regarding `COc1cc(-c2c(-c3ccncc3)nn3c(C4CC5CCC(C4)N5)ccnc23)ccc1Cl` (stereo unspecified), the IC50 in data set [4] was found to be 8.5 nM; in data set [1], 3500 nM; in the data set on A-375, 2600 nM.

As for `CCN1C2CCC1CC(c1ccnc3c(-c4ccc(Cl)c5[nH]ncc45)c(-c4ccncc4)nn13)C2` (stereo unspecified), the values for the IC50 (in data set [4]; in data set [1]; in the data set on A-375) were 4.4 nM, 860 nM and 1090 nM, respectively.

On to `CS(=O)(=O)C1C2CCC1CC(c1ccnc3c(-c4ccc(Cl)c(O)c4)c(-c4ccncc4)nn13)C2` (stereo unspecified), for which the IC50 in data set [4] is < 2 nM; in data set [1], 90 nM; in the data set on A-375, 270 nM.

On to `CCOC(=O)N1C2CCC1CC(c1ccnc3c(-c4ccc(Cl)c5[nH]ncc45)c(-c4ccncc4)nn13)C2` (stereo unspecified), for which the IC50 worked out at 0.4 nM in data set [4], 280 nM in data set [1] and 580 nM with A-375. The selectivity ratio in data set [2] is 19.3; in data set [3], 9.4.

For the molecule `CCOC(=O)N1C2CCC1CC(c1ccnc3c(-c4cccc5[nH]ccc45)c(-c4ccncc4)nn13)C2` (stereo unspecified), the IC50 in data set [4] was > 1000 nM.

`CN1C2CC(CO)C1Cc1cnc3c(-c4ccc(Cl)c(O)c4)c(-c4ccncc4)nn3c12` (stereo unspecified): the IC50 amounted to 0.6 nM in data set [4], 750 nM in data set [1] and 1700 nM with A-375.

Turning to `CCN1C2CCC1CC(c1ccnc3c(-c4ccc(C)c5[nH]ncc45)c(-c4ccncc4)nn13)C2` (stereo unspecified), the half-maximal inhibitory concentration (IC50) is 840 nM in data set [1] and 1600 nM in the data set with A-375.

On to `CCOC(=O)N1C2CCC1CC(c1ccnc3c(-c4ccc(F)c5[nH]ncc45)c(-c4ccncc4)nn13)C2` (stereo unspecified), for which the IC50 in data set [1] is 300 nM; in the data set with A-375, 620 nM. The figures for the selectivity ratio in data set [2] and in data set [3] were 12 and 5.8, respectively. Further, the Ratio in data set [5] amounted to 19.

In data set [1], `CCOC(=O)N1C2CCC1CC(c1ccnc3c(-c4cccc(O)c4)c(-c4ccncc4)nn13)C2` (stereo unspecified) came in with an IC50 of 240 nM.

For `CCNC(=O)N1C2CCC1CC(c1ccnc3c(-c4cccc5[nH]ncc45)c(-c4ccncc4)nn13)C2` (stereo unspecified), the values for the IC50 (in data set [1]; with A-375) were 1520 nM and 2810 nM, respectively.

For the molecule `CC(C)N1C2CCC1CC(c1ccnc3c(-c4cccc5[nH]ncc45)c(-c4ccncc4)nn13)C2` (stereo unspecified), the IC50 turned out to be 1750 nM in data set [1] and 1960 nM in the data set with A-375.

As to `CCN1C2CCC1CC(c1ccnc3c(-c4ccc(C#N)c(O)c4)c(-c4ccncc4)nn13)C2` (stereo unspecified), the IC50 (in data set [1]; in the data set on A-375) was > 10000 nM each time.

Take `Oc1cc(-c2c(-c3ccncc3)nn3c(C4CC5CCC(C4)N5)ccnc23)ccc1Cl` (stereo unspecified): the IC50 in data set [1] was determined as 90 nM; in the data set with A-375 it was 440 nM.

Take `CC(=O)N1C2CCC1CC(c1ccnc3c(-c4ccc(Cl)c(O)c4)c(-c4ccncc4)nn13)C2` (stereo unspecified): the IC50 in data set [1] worked out at 260 nM; with A-375, 900 nM.

On to `CCOC(=O)N1C2CCC1CC(c1ccnc3c(-c4cccc(OC)c4)c(-c4ccncc4)nn13)C2` (stereo unspecified), for which the results for the IC50 (in data set [1]; in the data set on A-375) were 8000 nM and 9000 nM, respectively.

On to `CCOC(=O)N1C2CCC1CC(c1ccnc3c(-c4ccc5c(c4)NC(=O)C5)c(-c4ccncc4)nn13)C2` (stereo unspecified), for which the 50% inhibitory concentration (IC50) in data set [4] is > 1000 nM.

Take `OCCN1C2CCC1CC(c1ccnc3c(-c4cccc5[nH]ncc45)c(-c4ccncc4)nn13)C2` (stereo unspecified): the IC50 in data set [1] amounted to 1370 nM; in the data set with A-375, 3440 nM.

Regarding `CCOC(=O)N1C2CCC1CC(c1ccnc3c(-c4ccc5cc[nH]c5c4)c(-c4ccncc4)nn13)C2` (stereo unspecified), the figures for the IC50 (in data set [1]; in the data set on A-375) were > 10000 nM and 7500 nM, respectively.

As for `CCN1C2CCC1CC(c1ccnc3c(-c4ccc(F)c(O)c4)c(-c4ccncc4)nn13)C2` (stereo unspecified), the IC50 in data set [1] was determined as 450 nM; with A-375, 760 nM.

As for `CS(=O)(=O)N1C2CCC1CC(c1ccnc3c(-c4cccc5[nH]ncc45)c(-c4ccncc4)nn13)C2` (stereo unspecified), the IC50 in data set [1] was 570 nM; with A-375, 950 nM.

For `CCN1C2CCC1CC(c1ccnc3c(-c4ccc(C(F)(F)F)c5[nH]ncc45)c(-c4ccncc4)nn13)C2` (stereo unspecified), the figures for the IC50 (in data set [4]; in data set [1]; in the data set with A-375) were 45 nM, 2900 nM and 1700 nM, respectively.

In the case of `CCOC(=O)N1C2CCC1CC(c1ccnc3c(-c4ccc(C)c(O)c4)c(-c4ccncc4)nn13)C2` (stereo unspecified), the IC50 in data set [1] was 230 nM; in the data set with A-375 it was 570 nM.

As to `COC(=O)C1CC2c3c(cnc4c(-c5ccc(Cl)c(O)c5)c(-c5ccncc5)nn34)CC1N2C` (stereo unspecified), the IC50 in data set [4] amounted to 1.6 nM; in data set [1], 1100 nM; in the data set on A-375, 2300 nM.

For the molecule `CCOC(=O)N1C2CCC1CC(c1c(C)cnc3c(-c4cccc5[nH]ncc45)c(-c4ccncc4)nn13)C2` (stereo unspecified), the IC50 in data set [4] was found to be 8.4 nM; in data set [1], 1870 nM; in the data set with A-375 it was 1220 nM.

With `CCOC(=O)N1C2CCC1CC(c1ccnc3c(-c4ccc(C(F)(F)F)c5[nH]ncc45)c(-c4ccncc4)nn13)C2` (stereo unspecified), the results for the IC50 (in data set [4]; in data set [1]; in the data set on A-375) were 4.4 nM, 2300 nM and 2500 nM, respectively.

On to `CCN1C2CCC1CC(c1ccnc3c(-c4ccc(Cl)c(OC)c4)c(-c4ccncc4)nn13)C2` (stereo unspecified), for which the IC50 in data set [1] came out at 5600 nM; in the data set with A-375 it was 2200 nM.

Take `CCN1C2CCC1CC(c1ccnc3c(-c4cccc5[nH]ncc45)c(-c4ccncc4)nn13)C2` (stereo unspecified): the results for the IC50 (in data set [4]; in data set [1]; in the data set on A-375) were 46.6 nM, 2400 nM and 2900 nM, respectively.

Turning to `CN1C2CC(S(=O)(=O)c3ccccc3)C1Cc1cnc3c(-c4ccc(Cl)c(O)c4)c(-c4ccncc4)nn3c12` (stereo unspecified), the 50% inhibitory concentration (IC50) came out at 0.8 nM in data set [4], 600 nM in data set [1] and 1000 nM with A-375.

Regarding `O=C(O)[C@H]1CCCN1C(=O)N1C2CCC1CC(c1ccnc3c(-c4cccc5[nH]ncc45)c(-c4ccncc4)nn13)C2` (stereo partly specified), the IC50 in data set [4] worked out at 2.1 nM; in data set [1], 1860 nM; with A-375 it was 5940 nM.

Regarding `CCOC(=O)N1C2CCC1CC(c1ccnc3c(-c4ccc(Cl)c(O)c4)c(-c4ccncc4)nn13)C2` (stereo unspecified), the figures for the IC50 in data set [4] and in data set [1] were < 2 nM and 120 nM, respectively.

`CCOC(=O)N1C2CCC1CC(c1ccnc3c(-c4cccc5[nH]c(=O)[nH]c45)c(-c4ccncc4)nn13)C2` (stereo unspecified): the IC50 in data set [4] is > 1000 nM.

With `CC(=O)N1C2CCC1CC(c1ccnc3c(-c4cccc5[nH]ncc45)c(-c4ccncc4)nn13)C2` (stereo unspecified), the IC50 in data set [1] is 1800 nM; in the data set with A-375, 2540 nM.

On to `CCOC(=O)N1C2CCC1CC(c1ccnc3c(-c4ccc(C)c5[nH]ncc45)c(-c4ccncc4)nn13)C2` (stereo unspecified), for which the figures for the IC50 (in data set [1]; in the data set on A-375) were 670 nM and 1000 nM, respectively.
